Source: patent US7074789B2, “Kinase inhibitors” (Amgen Inc., priority 1999, dated 2006)

What was measured:
Format in all cases: biochemical
Lck = target: T1, Lck (Homo sapiens, UniProt P06239); test: Kinase inhibition assay (33P transfer), Lck; settings: Table 3, class symbols; read-out: Lck-1
T1 construct: Kinases are expressed as either kinase domains or full length constructs; made in house
Procedure, shortened: (§1)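 Radiometric readout: 33P incorporated into surface-bound poly(Glu,Tyr) 4:1 or poly(Arg,Ser) 3:1 is counted by liquid scintillation after a 0.5% phosphoric acid wash. Enzymes were GST or polyHis fusions (kinase domain or full length) from E. coli or High Five insect cells.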

Zap-70 = target: T2, Zap-70 (Homo sapiens, UniProt P43403); test: Kinase inhibition assay (33P transfer), Zap-70; settings: Table 3, class symbols; read-out: Zap-1
T2 construct: Kinases are expressed as either kinase domains or full length constructs; made in house
T2 sequence (P43403 1-619): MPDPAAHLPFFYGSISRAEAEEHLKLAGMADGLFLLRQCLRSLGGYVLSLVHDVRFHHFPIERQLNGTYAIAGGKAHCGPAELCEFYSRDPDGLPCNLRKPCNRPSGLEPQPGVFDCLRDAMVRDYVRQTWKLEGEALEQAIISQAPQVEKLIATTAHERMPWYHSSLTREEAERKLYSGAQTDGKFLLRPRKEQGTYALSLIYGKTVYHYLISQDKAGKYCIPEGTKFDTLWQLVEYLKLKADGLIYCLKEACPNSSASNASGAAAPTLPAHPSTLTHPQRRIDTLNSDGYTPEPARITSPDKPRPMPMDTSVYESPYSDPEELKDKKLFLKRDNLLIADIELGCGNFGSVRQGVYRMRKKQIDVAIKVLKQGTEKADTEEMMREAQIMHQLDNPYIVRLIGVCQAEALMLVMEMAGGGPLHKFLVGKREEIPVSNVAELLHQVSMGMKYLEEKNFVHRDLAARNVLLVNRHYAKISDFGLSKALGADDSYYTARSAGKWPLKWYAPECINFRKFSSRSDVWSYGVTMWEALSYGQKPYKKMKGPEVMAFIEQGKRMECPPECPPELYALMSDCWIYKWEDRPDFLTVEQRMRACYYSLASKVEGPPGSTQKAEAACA
Procedure, shortened: as §1

Itk = target: T3, Itk (Homo sapiens, UniProt Q08881); test: Kinase inhibition assay (33P transfer), Itk; settings: Table 3, class symbols; read-out: Itk-1
T3 construct: Kinases are expressed as either kinase domains or full length constructs; made in house
T3 sequence (Q08881 1-620): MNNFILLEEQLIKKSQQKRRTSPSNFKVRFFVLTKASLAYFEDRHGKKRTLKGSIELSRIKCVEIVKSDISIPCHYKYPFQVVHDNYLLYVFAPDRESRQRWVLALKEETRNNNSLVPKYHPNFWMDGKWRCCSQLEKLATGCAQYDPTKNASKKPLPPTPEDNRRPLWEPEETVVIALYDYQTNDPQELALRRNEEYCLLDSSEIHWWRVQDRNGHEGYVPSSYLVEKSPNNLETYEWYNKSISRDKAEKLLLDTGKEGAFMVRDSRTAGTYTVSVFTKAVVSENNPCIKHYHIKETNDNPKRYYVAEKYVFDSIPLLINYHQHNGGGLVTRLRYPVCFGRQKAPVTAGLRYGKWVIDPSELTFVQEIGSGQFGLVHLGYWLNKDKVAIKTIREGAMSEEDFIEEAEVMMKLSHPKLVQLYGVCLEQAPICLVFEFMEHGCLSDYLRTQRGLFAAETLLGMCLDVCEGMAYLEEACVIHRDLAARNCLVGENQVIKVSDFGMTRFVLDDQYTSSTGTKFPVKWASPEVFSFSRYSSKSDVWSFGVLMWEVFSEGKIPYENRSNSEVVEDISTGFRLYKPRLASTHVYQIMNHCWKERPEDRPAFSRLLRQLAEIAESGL
Procedure, shortened: (§2)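 Steps: coat wells with poly(Glu,Tyr) 4:1 or poly(Arg,Ser) 3:1; add purified kinase, [33P]ATP and inhibitor; incubate; wash with 0.5% phosphoric acid; add liquid scintillant; count. IC50 corresponds to half-maximal reduction of bound 33P.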

EGFR = target: T4, EGFR (Homo sapiens, UniProt P00533); test: Kinase inhibition assay (33P transfer), EGFR; settings: Table 2, class symbols A-E; read-out: EGFR-1
T4 construct: Kinases are expressed as either kinase domains or full length constructs; made in house
Procedure, shortened: as §2

ErbB2 = target: T5, ErbB2 (Homo sapiens, UniProt P04626); test: Kinase inhibition assay (33P transfer), ErbB2; settings: read-out: ErbB2-2
T5 construct: Kinases are expressed as either kinase domains or full length constructs; made in house
Procedure, shortened: as §2

Kdr = target: T6, Kdr (Homo sapiens, UniProt P35968); test: Kinase inhibition assay (33P transfer), Kdr; settings: Table 3, class symbols; read-out: KDR-1
T6 construct: Kinases are expressed as either kinase domains or full length constructs; made in house
Procedure, shortened: as §1

c-Met = target: T7, c-Met (Homo sapiens, UniProt P08581); test: Kinase inhibition assay (33P transfer), c-Met; settings: Table 2, class symbols A-E; read-out: Met-1
T7 construct: Kinases are expressed as either kinase domains or full length constructs; made in house
Procedure, shortened: as §2

AKT = target: T8, AKT (Homo sapiens, UniProt Q9Y243); test: Kinase inhibition assay (33P transfer), AKT; settings: Table 2, class symbols A-E; read-out: AKT3-1
T8 construct: Kinases are expressed as either kinase domains or full length constructs; made in house
Procedure, shortened: as §1

IGFR-1 = target: T9, IGFR-1 (Homo sapiens, UniProt P08069); test: Kinase inhibition assay (33P transfer), IGFR-1; settings: Table 2, class symbols A-E
T9 construct: Kinases are expressed as either kinase domains or full length constructs; made in house

PDGFRB = target: T10, PDGFRB (Homo sapiens, UniProt P09619); test: Kinase inhibition assay (33P transfer), PDGFRB; settings: read-out: PDGFRB-1
T10 construct: Kinases are expressed as either kinase domains or full length constructs; made in house
T10 sequence (P09619 33-1106, species assumed): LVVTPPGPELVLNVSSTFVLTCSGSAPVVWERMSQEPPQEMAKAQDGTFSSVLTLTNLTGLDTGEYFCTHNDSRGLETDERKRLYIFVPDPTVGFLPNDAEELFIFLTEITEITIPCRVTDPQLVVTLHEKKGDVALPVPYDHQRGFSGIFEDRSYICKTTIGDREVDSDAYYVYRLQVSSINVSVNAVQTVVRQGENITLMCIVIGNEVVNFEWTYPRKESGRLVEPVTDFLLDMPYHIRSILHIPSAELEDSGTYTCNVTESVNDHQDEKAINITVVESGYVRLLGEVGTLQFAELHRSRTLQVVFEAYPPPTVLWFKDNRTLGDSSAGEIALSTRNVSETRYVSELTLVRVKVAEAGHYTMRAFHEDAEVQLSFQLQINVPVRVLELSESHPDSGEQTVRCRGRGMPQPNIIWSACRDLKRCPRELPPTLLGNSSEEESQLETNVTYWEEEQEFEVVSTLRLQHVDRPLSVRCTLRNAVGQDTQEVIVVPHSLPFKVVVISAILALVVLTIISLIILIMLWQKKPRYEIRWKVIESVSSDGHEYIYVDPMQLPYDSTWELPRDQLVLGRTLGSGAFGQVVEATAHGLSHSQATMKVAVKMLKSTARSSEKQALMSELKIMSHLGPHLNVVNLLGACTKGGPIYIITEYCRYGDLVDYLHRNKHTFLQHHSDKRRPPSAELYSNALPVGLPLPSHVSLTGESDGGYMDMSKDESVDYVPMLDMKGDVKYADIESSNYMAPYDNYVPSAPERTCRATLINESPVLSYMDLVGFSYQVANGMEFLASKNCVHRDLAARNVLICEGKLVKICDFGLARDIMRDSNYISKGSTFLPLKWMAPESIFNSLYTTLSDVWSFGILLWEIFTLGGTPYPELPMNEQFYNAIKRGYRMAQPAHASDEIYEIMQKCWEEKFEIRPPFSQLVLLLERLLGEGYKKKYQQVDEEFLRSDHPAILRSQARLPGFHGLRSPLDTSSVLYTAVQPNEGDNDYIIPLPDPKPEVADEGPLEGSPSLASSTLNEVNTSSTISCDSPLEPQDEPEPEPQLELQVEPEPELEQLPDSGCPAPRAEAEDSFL

T8 sequence (Q9Y243 whole entry, the tested form may be a part): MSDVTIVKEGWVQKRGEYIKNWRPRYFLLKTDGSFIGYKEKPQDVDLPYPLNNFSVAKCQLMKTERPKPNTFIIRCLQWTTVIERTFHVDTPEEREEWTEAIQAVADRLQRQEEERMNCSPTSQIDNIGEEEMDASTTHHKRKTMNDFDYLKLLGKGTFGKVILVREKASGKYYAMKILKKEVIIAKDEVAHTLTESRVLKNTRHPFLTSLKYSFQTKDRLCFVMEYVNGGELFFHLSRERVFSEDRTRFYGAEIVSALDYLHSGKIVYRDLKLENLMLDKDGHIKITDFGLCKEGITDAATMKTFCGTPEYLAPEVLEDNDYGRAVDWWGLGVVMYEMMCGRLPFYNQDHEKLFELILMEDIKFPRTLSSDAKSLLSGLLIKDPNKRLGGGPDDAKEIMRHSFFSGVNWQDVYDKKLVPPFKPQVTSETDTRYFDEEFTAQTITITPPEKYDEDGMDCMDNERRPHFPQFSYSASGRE
T4 sequence (P00533 25-1210, species assumed): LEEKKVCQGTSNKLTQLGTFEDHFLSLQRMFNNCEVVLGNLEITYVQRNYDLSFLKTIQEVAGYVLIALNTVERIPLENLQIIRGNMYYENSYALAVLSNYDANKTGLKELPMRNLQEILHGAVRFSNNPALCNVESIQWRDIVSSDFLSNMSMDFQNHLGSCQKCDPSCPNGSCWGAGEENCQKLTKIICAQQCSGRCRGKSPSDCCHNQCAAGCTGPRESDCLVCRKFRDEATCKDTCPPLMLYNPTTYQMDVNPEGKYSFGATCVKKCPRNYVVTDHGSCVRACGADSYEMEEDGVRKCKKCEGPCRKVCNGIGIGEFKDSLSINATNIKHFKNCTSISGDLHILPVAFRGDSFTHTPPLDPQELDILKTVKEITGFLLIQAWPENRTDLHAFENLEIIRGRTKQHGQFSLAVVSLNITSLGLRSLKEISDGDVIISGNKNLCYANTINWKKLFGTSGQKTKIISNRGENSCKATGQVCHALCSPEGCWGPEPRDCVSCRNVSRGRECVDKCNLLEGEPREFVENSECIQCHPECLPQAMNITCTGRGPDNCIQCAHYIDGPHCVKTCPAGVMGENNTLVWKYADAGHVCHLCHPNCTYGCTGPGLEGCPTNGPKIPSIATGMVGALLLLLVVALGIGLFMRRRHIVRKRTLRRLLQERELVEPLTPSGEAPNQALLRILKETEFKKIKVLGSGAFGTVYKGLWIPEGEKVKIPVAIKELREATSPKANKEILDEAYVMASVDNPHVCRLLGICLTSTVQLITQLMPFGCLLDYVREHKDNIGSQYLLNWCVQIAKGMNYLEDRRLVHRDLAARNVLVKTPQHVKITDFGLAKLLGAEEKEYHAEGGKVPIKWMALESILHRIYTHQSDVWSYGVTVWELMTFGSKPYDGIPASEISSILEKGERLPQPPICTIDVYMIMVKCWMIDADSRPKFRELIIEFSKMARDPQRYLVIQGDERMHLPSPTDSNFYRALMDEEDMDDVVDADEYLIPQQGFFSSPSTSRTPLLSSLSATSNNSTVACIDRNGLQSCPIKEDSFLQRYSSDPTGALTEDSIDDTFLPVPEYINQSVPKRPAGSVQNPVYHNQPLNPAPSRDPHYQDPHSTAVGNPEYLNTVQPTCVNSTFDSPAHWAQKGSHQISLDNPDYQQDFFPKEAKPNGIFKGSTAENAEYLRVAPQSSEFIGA
T9 sequence (P08069 31-1367): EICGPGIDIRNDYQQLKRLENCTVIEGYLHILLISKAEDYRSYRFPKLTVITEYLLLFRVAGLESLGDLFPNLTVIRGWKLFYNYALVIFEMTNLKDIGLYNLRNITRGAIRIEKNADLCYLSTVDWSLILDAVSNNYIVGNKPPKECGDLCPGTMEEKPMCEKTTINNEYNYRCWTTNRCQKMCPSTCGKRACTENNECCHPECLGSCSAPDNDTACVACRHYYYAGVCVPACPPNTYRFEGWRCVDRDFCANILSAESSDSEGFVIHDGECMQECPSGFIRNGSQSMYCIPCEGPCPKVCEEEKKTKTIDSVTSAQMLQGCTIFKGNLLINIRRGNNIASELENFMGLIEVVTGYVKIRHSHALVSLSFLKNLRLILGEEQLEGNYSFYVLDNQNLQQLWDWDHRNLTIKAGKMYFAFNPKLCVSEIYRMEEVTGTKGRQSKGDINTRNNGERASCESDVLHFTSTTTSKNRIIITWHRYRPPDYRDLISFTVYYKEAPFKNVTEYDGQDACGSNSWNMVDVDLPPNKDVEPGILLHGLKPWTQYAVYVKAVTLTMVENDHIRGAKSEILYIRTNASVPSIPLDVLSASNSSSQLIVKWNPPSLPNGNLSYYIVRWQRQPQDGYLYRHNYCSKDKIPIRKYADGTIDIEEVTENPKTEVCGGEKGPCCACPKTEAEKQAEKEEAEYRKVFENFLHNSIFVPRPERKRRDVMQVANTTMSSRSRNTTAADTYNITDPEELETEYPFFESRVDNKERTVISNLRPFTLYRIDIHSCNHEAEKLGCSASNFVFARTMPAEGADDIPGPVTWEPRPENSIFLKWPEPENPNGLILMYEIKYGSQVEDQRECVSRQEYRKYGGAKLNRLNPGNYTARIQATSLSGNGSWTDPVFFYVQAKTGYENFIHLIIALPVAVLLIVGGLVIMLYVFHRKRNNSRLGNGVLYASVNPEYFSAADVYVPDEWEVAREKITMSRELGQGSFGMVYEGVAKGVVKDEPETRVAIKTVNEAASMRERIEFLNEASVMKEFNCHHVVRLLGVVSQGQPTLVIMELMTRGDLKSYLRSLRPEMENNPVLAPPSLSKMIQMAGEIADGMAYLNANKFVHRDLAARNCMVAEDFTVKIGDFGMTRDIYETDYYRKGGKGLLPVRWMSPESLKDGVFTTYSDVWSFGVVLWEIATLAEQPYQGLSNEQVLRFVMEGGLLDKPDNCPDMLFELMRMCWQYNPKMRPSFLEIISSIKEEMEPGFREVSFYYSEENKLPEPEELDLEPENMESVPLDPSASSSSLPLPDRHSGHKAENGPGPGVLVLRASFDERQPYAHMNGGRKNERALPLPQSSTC
T1 sequence (P06239 whole entry, species assumed, the tested form may be a part): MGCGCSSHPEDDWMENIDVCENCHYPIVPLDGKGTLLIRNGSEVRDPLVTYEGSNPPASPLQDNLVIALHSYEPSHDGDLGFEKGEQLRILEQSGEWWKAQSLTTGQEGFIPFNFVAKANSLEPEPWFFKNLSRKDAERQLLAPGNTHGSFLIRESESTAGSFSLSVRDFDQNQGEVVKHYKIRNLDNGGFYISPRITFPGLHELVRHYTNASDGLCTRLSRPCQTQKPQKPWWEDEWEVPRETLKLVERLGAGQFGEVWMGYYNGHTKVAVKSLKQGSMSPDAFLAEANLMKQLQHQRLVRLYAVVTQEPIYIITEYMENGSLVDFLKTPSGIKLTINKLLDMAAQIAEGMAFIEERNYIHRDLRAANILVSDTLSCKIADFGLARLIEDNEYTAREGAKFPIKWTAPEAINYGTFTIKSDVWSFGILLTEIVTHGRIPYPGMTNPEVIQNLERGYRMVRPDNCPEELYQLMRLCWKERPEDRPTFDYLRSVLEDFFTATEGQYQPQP

Compound | IC50 (Lck) [µM] | IC50 (Zap-70) [µM] | IC50 (Itk) [µM] | IC50 (EGFR) [µM] | IC50 (ErbB2) [µM] | IC50 (Kdr) [µM] | IC50 (c-Met) [µM] | IC50 (AKT) [µM] | IC50 (IGFR-1) [µM] | IC50 (PDGFRB) [µM]
c1ccc(Nc2ncccc2-c2ncnc(Nc3cccc(Cn4ccnn4)c3)n2)cc1 [Compound 1095] | > 10.7 | > 10.7 | > 10.7 | > 10.7 | > 10.7 | < 0.949 | > 10.7 | > 10.7 | > 10.7 | < 0.949
COc1cc(Nc2ncnc(-c3cccnc3NC(C)C)n2)ccc1NC(=O)CCCN1CCNCC1 [Compound 1096] | 0.791 to 4.75 | > 8.9 | 4.75 to 6.92 | > 8.9 | > 8.9 | 0.791 to 4.75 | 6.92 to 8.9 | 6.92 to 8.9 | > 8.9 | < 0.791
Fc1ccc(CNc2ncccc2-c2ncnc(Nc3ccc(N4CCOCC4)cc3)n2)cc1 [Compound 1106] | > 9.84 | > 9.84 | > 9.84 | > 9.84 | > 9.84 | 0.874 to 5.25 | > 9.84 | > 9.84 | > 9.84 | 0.874 to 5.25
COC(=O)c1ccc(-c2cc(Nc3ncnc(NCc4ccccc4OC)n3)[nH]n2)cc1 [Compound 815] | > 10.4 | > 10.4 | > 10.4 | > 10.4 | 0.927 to 5.56 | 8.11 to 10.4 | > 10.4 | > 10.4 | > 10.4 | 0.927 to 5.56
O=C(O)/C=C/c1ccc(Nc2ncnc(Nc3cc(-c4ccco4)[nH]n3)n2)cc1 [Compound 886] | 1.03 to 6.16 | 1.03 to 6.16 | < 1.03 | < 1.03 | 1.03 to 6.16 | < 1.03 | < 1.03 | 1.03 to 6.16 | 1.03 to 6.16 | > 11.6
O=C(O)CCc1cccc(Nc2ncnc(Nc3cc(-c4ccco4)[nH]n3)n2)c1 [Compound 887] | 1.02 to 6.13 | > 11.5 | 6.13 to 8.94 | < 1.02 | 1.02 to 6.13 | < 1.02 | < 1.02 | 1.02 to 6.13 | < 1.02 | 1.02 to 6.13
O=S(=O)(O)c1cccc(Nc2ncnc(Nc3cc(-c4ccco4)[nH]n3)n2)c1 [Compound 825] | 8.76 to 11.3 | 6.01 to 8.76 | 1 to 6.01 | < 1 | 1 to 6.01 | < 1 | 1 to 6.01 | 1 to 6.01 | 1 to 6.01 | 1 to 6.01
COC(=O)c1ccc(-c2cc(Nc3ncnc(Nc4cc(Cl)cc(Cl)c4)n3)[nH]n2)cc1 [Compound 811] | > 9.86 | > 9.86 | > 9.86 | > 9.86 | > 9.86 | > 9.86 | > 9.86 | > 9.86 | 5.26 to 7.67 | > 9.86
COc1ccc(Nc2ncnc(N(C)C3CCN(Cc4ccccc4)C3)n2)cc1OC (stereo not shown) [Compound 802] | > 10.7 | > 10.7 | > 10.7 | > 10.7 | > 10.7 | > 10.7 | > 10.7 | > 10.7 | > 10.7 | 0.951 to 5.71
Cc1ccc(-c2cc(Nc3ncnc(Nc4cc(C)ccc4C)n3)[nH]n2)cc1 [Compound 1125] | < 1.08 | > 12.1 | < 1.08 | < 1.08 | 1.08 to 6.46 | 1.08 to 6.46 | 1.08 to 6.46 | > 12.1 | < 1.08 | 1.08 to 6.46
CC(C)Nc1ncccc1-c1ncnc(Nc2cccc(Cn3ccnn3)c2)n1 [Compound 1098] | 1.03 to 6.19 | > 11.6 | 1.03 to 6.19 | 6.19 to 9.03 | > 11.6 | 1.03 to 6.19 | 6.19 to 9.03 | 6.19 to 9.03 | > 11.6 | 1.03 to 6.19
COC(=O)c1ccc(-c2cc(Nc3ncnc(NCCc4ccc(OC)cc4)n3)[nH]n2)cc1 [Compound 817] | > 10.1 | > 10.1 | > 10.1 | > 10.1 | 0.898 to 5.39 | > 10.1 | > 10.1 | > 10.1 | > 10.1 | 0.898 to 5.39
COC(=O)c1ccc(-c2cc(Nc3ncnc(Nc4ccc(N5CCOCC5)cc4)n3)[nH]n2)cc1 [Compound 807] | > 9.52 | > 9.52 | 5.08 to 7.41 | 7.41 to 9.52 | 0.847 to 5.08 | > 9.52 | < 0.847 | > 9.52 | 0.847 to 5.08 | > 9.52
CCN(CC)CCN(C)c1ncnc(Nc2ccc(OC)c(OC)c2)n1 [Compound 870] | > 12.5 | > 12.5 | > 12.5 | > 12.5 | > 12.5 | > 12.5 | > 12.5 | > 12.5 | > 12.5 | > 12.5
COc1cc(Nc2ncnc(-c3cccnc3Nc3cccc(C#N)c3)n2)cc(OC)c1OC [Compound 828] | > 9.88 | > 9.88 | > 9.88 | > 9.88 | > 9.88 | > 9.88 | > 9.88 | > 9.88 | > 9.88 | > 9.88
O=C(O)Cc1cccc(Nc2ncnc(-c3cccnc3NCc3ccc(F)cc3)n2)c1 [Compound 1100] | 8.13 to 10.5 | > 10.5 | > 10.5 | 0.929 to 5.58 | 0.929 to 5.58 | < 0.929 | 8.13 to 10.5 | > 10.5 | > 10.5 | < 0.929
COc1cc(Nc2ncnc(N3CCCc4cc(Cl)ccc43)n2)cc(OC)c1OC [Compound 639] | 0.935 to 5.61 | > 10.5 | > 10.5 | < 0.935 | 5.61 to 8.18 | < 0.935 | < 0.935 | > 10.5 | > 10.5 | < 0.935
COc1cc(Nc2ncnc(Nc3cc(-c4ccco4)[nH]n3)n2)cc(C(F)(F)F)c1 [Compound 821] | 0.958 to 5.75 | 0.958 to 5.75 | 0.958 to 5.75 | 0.958 to 5.75 | 0.958 to 5.75 | 0.958 to 5.75 | 0.958 to 5.75 | 5.75 to 8.39 | 0.958 to 5.75 | 0.958 to 5.75
COc1cc(Nc2ncnc(N(C)c3cccc(Cl)c3)n2)cc2ccccc12 [Compound 876] | > 11.5 | > 11.5 | 8.93 to 11.5 | < 1.02 | 1.02 to 6.12 | > 11.5 | > 11.5 | > 11.5 | > 11.5 | > 11.5
